Measured values published in PubChem BioAssay (NCI).
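Exposure lasted 48 hours, with cells grown in 96-well plates and compounds tested at five concentrations. The concentration for 50% growth inhibition is given as GI50. The concentration for full growth arrest is given as TGI.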

How the values were obtained:
Test in all cases: NCI-60 cell line screen, 48 h
SNB-75 CNS = system: SNB-75 CNS
PC-3 prostate = system: PC-3 prostate
HL-60(TB) leukemia = system: HL-60(TB) leukemia
SF-268 CNS = system: SF-268 CNS
DU-145 prostate = system: DU-145 prostate
TK-10 renal = system: TK-10 renal
SNB-19 CNS = system: SNB-19 CNS
MOLT-4 leukemia = system: MOLT-4 leukemia
SK-MEL-28 melanoma = system: SK-MEL-28 melanoma
ACHN renal = system: ACHN renal

| SMILES | GI50 (SNB-75 CNS) | TGI (SNB-75 CNS) | GI50 (PC-3 prostate) | TGI (PC-3 prostate) | GI50 (HL-60(TB) leukemia) | TGI (HL-60(TB) leukemia) | GI50 (SF-268 CNS) | TGI (SF-268 CNS) | GI50 (DU-145 prostate) | TGI (DU-145 prostate) | GI50 (TK-10 renal) | TGI (TK-10 renal) | GI50 (SNB-19 CNS) | TGI (SNB-19 CNS) | GI50 (MOLT-4 leukemia) | TGI (MOLT-4 leukemia) | GI50 (SK-MEL-28 melanoma) | TGI (SK-MEL-28 melanoma) | GI50 (ACHN renal) | TGI (ACHN renal) |
| --- | --- | --- | --- | --- | --- | --- | --- | --- | --- | --- | --- | --- | --- | --- | --- | --- | --- | --- | --- | --- |
| CCN(CC)CCCCCCNc1cc(OC)cc2cccnc12 | 13.8 µM | 30.6 µM | 2.06 µM | 4.1 µM | 1.94 µM | 4.03 µM | 1.72 µM | 3.83 µM | 1.8 µM | 3.65 µM | 16.1 µM | 30.8 µM | 8.17 µM | 30.8 µM | 1.84 µM | 3.86 µM | 2.09 µM | 4.53 µM | 1.84 µM | 3.56 µM |
| COc1ccc(-c2nc(/C=C3\SC(=NCc4ccccc4)NC3=O)c3ccccn23)cc1 | 1.51 µM | 3.2 µM | 1.28 µM | 4.35 µM | 2.1 µM | 5.11 µM | 0.377 µM | 1.57 µM | 0.685 µM | 1.81 µM | 2.31 µM | 5.24 µM | 2.71 µM | 9.68 µM | 2.72 µM | > 100 µM | 2 µM | 4.4 µM | 1.34 µM | 1.94 µM |
| COC1=C(OC)C(=O)C(SC/C=C(\C)CCCC(C)CCCC(C)CCCC(C)C)=CC1=O (centres undefined) | 0.972 µM | > 26.1 µM | 0.255 µM | > 100 µM | 0.359 µM | 3.41 µM | 1.98 µM | > 100 µM | 4.27 µM | > 100 µM | 2.46 µM | > 59.4 µM | 1.5 µM | > 100 µM | 1.41 µM | > 100 µM | 1.04 µM | > 100 µM | 2.04 µM | > 100 µM |
| COC1C(N)C(OC2C(Oc3cccc4c(O)c5c(=O)oc6ccc(C)c7c(=O)oc(c34)c5c67)OC(C)C(O)C2(C)O)OC(C)C1O (centres undefined) |  | 0.356 µM |  | 1.18 µM |  | 9.48 µM |  | 0.104 µM |  | 1.33 µM |  | 1.27 µM |  | 0.469 µM |  | 1.96 µM |  | 0.34 µM |  | 1.5 µM |
| c1ccc2c(c1)Nc1ccncc1S2 | 18.1 µM | 56.6 µM | 27 µM | > 100 µM | 19.4 µM | 75.4 µM | 24.5 µM | > 100 µM | 32.3 µM | > 100 µM | 22.7 µM | 83.4 µM | 25.7 µM | > 100 µM | 31.1 µM | > 100 µM | 31.5 µM | > 100 µM | 17.9 µM | > 100 µM |
| O=C(CC1(O)C(=O)N(Cc2ccccc2)c2ccccc21)c1ccc(C(=O)NCC2CCC3(CC2)OOC2(CCCCC2)OO3)cc1 (centres undefined) | 1.58 µM | 3.44 µM | 1.58 µM | 4.91 µM | 0.539 µM | 2.09 µM | 1.85 µM | 4.03 µM | 0.25 µM | 0.625 µM | 0.835 µM | 2.24 µM | 4.67 µM | 51.8 µM | 1.89 µM | 4.61 µM | 4.96 µM | 26.8 µM | 0.195 µM | 0.399 µM |
| C[N+](C)(C)CC1CCCC1=O (centres undefined) |  | 7.98 µM |  | 2.91 µM |  | > 20.2 µM |  | 20.8 µM |  | 0.0951 µM |  | 6.76 µM |  | 50.8 µM |  | 4.4 µM |  | 3.72 µM |  | 9.94 µM |
| CC1=C(CC(=O)c2cccc([N+](=O)[O-])c2)C(=O)c2ccccc2C1=O | 2.22 µM | 10.2 µM | 7.14 µM | 63.2 µM | 2.88 µM | 7.8 µM | 9.19 µM | 26.9 µM | 7.55 µM | 20.1 µM | 39.7 µM | 85.8 µM | > 100 µM | > 100 µM | 3.27 µM | 14.1 µM | 3.54 µM | 13.9 µM | 2.96 µM | 11.9 µM |
| COC(=O)[C@H]1CCCN1C(=O)[C@H]1CCCN1C(=O)[C@@H](Cc1c[nH]c2ccccc12)NC(=S)Nc1cc(C(F)(F)F)cc(C(F)(F)F)c1 | 1.52 µM | 5.82 µM | 1.61 µM | 3.04 µM | 2.38 µM | 6.03 µM | 2 µM | 5.4 µM | 2.6 µM | 6.79 µM | 2.21 µM | 5.62 µM | 2.14 µM | 5.72 µM | 2.38 µM | 7.6 µM | 2.07 µM | 4.17 µM | 2.51 µM | 7.78 µM |
| C#CCNC(=O)[C@H](CC)[C@H]1CC[C@H](C)[C@H]([C@@H](C)[C@H](O)[C@H](C)C(=O)[C@H](CC)C2O[C@]3(C=CC(=O)[C@]4(CC[C@@](C)([C@H]5CC[C@](O)(CC)[C@H](C)O5)O4)O3)[C@H](C)C[C@@H]2C)O1 (some centres undefined) | 1.39 µM | 3.36 µM | 2 µM | 8.78 µM | 2.28 µM | 5.45 µM | 2.08 µM | 6.37 µM | 2.41 µM | 6.32 µM | 2.35 µM | 7.74 µM | 2.36 µM | 7.96 µM | 2.44 µM | 8.76 µM | 1.87 µM | 3.96 µM | 2.94 µM | 14.6 µM |
| CN(CCNCc1ccccn1)CCNCc1ccccn1 | 3.04 µM | 16 µM | 2.27 µM | 7.59 µM | 3.27 µM | 23.3 µM | 3.96 µM | 15.4 µM | 3.6 µM | 12.4 µM | 2.19 µM | 6.94 µM | 5.29 µM | 18.5 µM | 3.61 µM | > 100 µM | 2.64 µM | 8.17 µM | 2.2 µM | 5.82 µM |
| Nc1nc(Nc2ccccc2SSc2ccccc2Nc2nc(N)nc(C(Cl)(Cl)Cl)n2)nc(C(Cl)(Cl)Cl)n1 | 2.94 µM | 22.3 µM | 3.56 µM | 18.6 µM | 2.55 µM | 12.1 µM | 3.1 µM | 13.8 µM | 9.57 µM | 24.4 µM | 4.85 µM | 17.2 µM | 4.41 µM | 17.8 µM | 3.22 µM | 18.1 µM | 10.9 µM | 23.6 µM | 1.7 µM | 3.2 µM |
| N#CCCN1C/C(=C/c2ccc(Cl)cc2)C(=O)/C(=C/c2ccc(Cl)cc2)C1 | 2.19 µM | 6.8 µM | 0.489 µM | 3.61 µM | 2.12 µM | 7.38 µM | 1.51 µM | 3.09 µM | 1.9 µM | 4.2 µM | 2.08 µM | 4.86 µM | 1.31 µM | 2.72 µM | 1.94 µM | 8.39 µM | 1.91 µM | 3.9 µM | 1.63 µM | 3.28 µM |
| CCc1cccc(C)c1NC(=O)c1sc2nc3c(cc2c1N)C(=O)CCC3 | 0.527 µM | > 100 µM | 0.454 µM | > 100 µM | 0.327 µM |  | 3.06 µM | > 100 µM | 0.514 µM | > 100 µM | 0.774 µM | 79.6 µM | 0.918 µM | > 100 µM | 2.62 µM | > 69.6 µM | 1.09 µM | > 100 µM | 0.872 µM | > 100 µM |
| OCCNC1c2cc(Cl)ccc2-c2c(Cl)cc(Cl)cc21 (centres undefined) |  | > 100 µM |  | 77.3 µM |  | 51.4 µM |  | > 100 µM |  | > 100 µM |  | > 100 µM |  | > 100 µM |  | 47.6 µM |  | > 100 µM |  | 67 µM |
| CC1OC(OC2C(O)CC(OC3C(O)CC(OC4CCC5(C)C(CCC6C5CC(O)C5(C)C(C7=CC(=O)OC7)CCC65O)C4)OC3C)OC2C)CC(O)C1O (centres undefined) | 0.0765 µM | 0.241 µM | 0.0543 µM | 0.538 µM | 0.0253 µM | 0.0564 µM | 0.0359 µM | 0.133 µM | 0.0308 µM | 0.0903 µM | 0.0295 µM | 0.087 µM | 0.113 µM | 0.238 µM | 0.0252 µM | 0.0619 µM | 0.152 µM | 0.302 µM | 0.0358 µM | 0.126 µM |
